{"source": "patent US6632823B1", "about": "“Substituted pyridine compounds useful as modulators of acetylcholine receptors” (Merck & Co., Inc., priority 1997, dated 2003)", "note": "Where a name gives a salt, the structure may show the parent alone."}
{"units": {"melting point": "°C"}}
{"smiles": "CN1C2CCC1CC(SCc1ccccn1)C2", "note": "(stereo not drawn) (as salt: hydrochloride)", "melting point": "204 to 206"}
{"smiles": "CN1CCCC1CCSc1ccncc1", "note": "(stereo not drawn) (as salt: hydrochloride) [A = C, B = N, R1, R2, R4, R5 = H, D = absent, E = —S—, G = —] [2-[2-(4-Pyridine)thioethyl]-1-methylpyrrolidine]", "melting point": "186.5 to 187.5"}
{"smiles": "CN1C2CCC1CC(Sc1ccccn1)C2", "note": "(stereo not drawn) (as salt: hydrochloride) [3-[Endo-(2-Pyridine)thio]-8-methyl-8-azabbicyclo[3.2.1]octane]", "melting point": "201 to 205"}
